Assay results reported in patent US5049550A, “Diadenosine 5', 5'"-p^1, p^4,-tetraphosphate analogs as antithrombotic agents” (Worcester Foundation for Experimental Biology, priority 1988, dated 1991).
Entries after “also recorded” stand apart in the source; their conditions may differ. Like-named read-outs stand apart in the source and are kept apart here.

What was measured:
[1] = tested on: rabbit platelet aggregation by collagen; experiment: Collagen-induced aggregation of rabbit platelets; format: cell-based; conditions: collagen 200 ug/ml
Experimental: (§1) Rabbit carotid arterial blood was collected in 3.8% sodium citrate (9 volumes blood to 1 volume citrate). Platelet rich plasma (PRP) and platelet poor plasma (PPP) were prepared by centrifugation at 150 g and 1,000 g for 10 minutes respectively. Aggregation studies were performed in a Chrono-Log (Havertown, Pa.) aggregometer with ADP or collagen as aggregating agents. ADP (Sigma Chemical Co.) was used in a final concentration of 2×10^-5 M. Calf skin collagen (Sigma Chemical Co.) was used in a final concentration of 200 ug/ml.
(§2) The effect of AP4 A on rabbit platelet aggregation by ADP and collagen was tested. […] The anti-aggregatory effect of AP4 A was detected at a concentration of 2×10^-4 M (tenfold that of ADP) and increased in a dose-response pattern with increasing concentrations (FIG. 1).

[2] = tested on: Intracarotid Artery Thrombosis; conditions: rabbit model, literature; cited from earlier work
[3] = tested on: ADP-Induced Platelet Aggregation; experiment: ADP-induced platelet aggregation in human platelet-rich plasma; format: cell-based; conditions: for inhibition of platelet aggregation compared with E10: ADP; for inhibition of platelet aggregation (in words): FIG. 5 at 12.5 μM; for effect on platelet inhibition at 50 μM: even at 50 μM
Experimental: Human platelet-rich plasma was pre-incubated at 37° C. with the appropriate analogue for 1 minute. Aggregation was then induced by 5 μM ADP. ID50 values (i.e. concentration of analogue at which platelets are inhibited by 50 percent) were obtained from log-dose response plots.
FIG. 5 is a graphic representation of the data.
This Example illustrates that sulfur-containing analogues of AP4 A are as effective as E10 in inhibiting aggregation of platelets. Platelet aggregation was induced by ADP and its inhibition measured as in the previous Example.

[4] = tested on: ADP-induced platelet aggregation; experiment: Kinetics of ADP-induced platelet aggregation (double-reciprocal plot); format: cell-based; conditions: FIG. 6
Experimental: Changes in light transmission reflecting the velocity of ADP-induced platelet aggregability was determined using a platelet aggregometer. Born, G.V.P., Nature 184:927-929 (1962). […] The Y points on the X-intercept are altered by factors [formula] where I is the concentration of inhibitor, and Ki is a characteristic constant. Points on the X-intercept are given by the expression [formula] intercept when [I]=0. When [I] is known, the equation can be solved for Ki.

[5] = tested on: Intracarotid Artery Thrombosis; experiment: Intracarotid cannula arterial thrombosis model in rabbits; format: in vivo, rabbit
Experimental: Gurewich, V. and Lipinski, B. Thrombosis Research, 9:101 (1976); Louie, S. and Gurewich, V. Thrombosis Research, 30:323-335 (1983).
Male, New Zealand white rabbits, weighing 2-2.5 kg., were anesthetized with ketamine hydrochloride (100 mg/kg intramuscularly). AP4 A (Boehringer (100 Mannheim Biochemicals, Indianapolis, Ind.), or saline control was infused via a marginal ear vein. A segment of the left common carotid artery was isolated by vascular clamps. A 1 cm. length of polyethylene tubing (PE-90, Clay Adams, Parsippany, N.Y.) was inserted, secured by silk ligatures, and the blood flow re-established by removing the clamps. Blood was sampled from the right carotid artery for assays of AP4 A and ATP, and for platelet aggregation studies.
After preliminary trials, a standard AP4 A infusion protocol was established as follows: A dose of AP4 A at 50 mg/kg was reconstituted in 10 ml of normal saline and infused by pump at a uniform rate over two hours. Control rabbits received 10 ml of saline alone. The intracarotid cannula was inserted, and the re-establishment of blood flow timed at 15 minutes into the infusion. Upon the completion of infusion at 2 hours, the intracarotid tubing was removed, and its contents flushed out into a petri dish. The presence of a clot or of liquid blood contents was noted.
Twenty-five rabbits each were assigned to the experimental group that received AP4 A (50 mg/kg), and the control group that received normal saline alone. The incidence of clot formation in the intracarotid cannula in the two groups was compared by the Chi-Square test.
Initially, twelve rabbits received a constant infusion of E10 over a 2 hour period at a dosage of 100 mg in 10 ml. These intravenous infusions were performed as described above for AP4 A.
In addition, 30 mg of E10 in 3 ml saline was administered as a single injection over a one minute time span at the beginning of the cannulation period.

[6] = tested on: rabbit platelet aggregation by ADP; experiment: ADP-induced aggregation of rabbit platelets; format: cell-based; conditions: ADP 2×10^-5 M
Experimental: as §1, §2

[7] = plasma; cited from earlier work
platelets = conditions: cited from earlier work
[8] = Homo sapiens, Platelet, Table 5, sulfur-containing analogues, induced by ADP, read-out: ID50 (the source's name)
[9] = Homo sapiens, Platelet, Table 3, 5 μM ADP, 1 minute pre-incubation at 37° C., read-out: ID50 (concentration of analogue at which platelets are inhibited by 50 percent)
[10] = E10 30 mg, single injection over one minute, 6 rabbits
[11] = E10 100 mg, 2 h infusion, 12 rabbits
[12] = E10 total (100 mg + 30 mg series), 18 rabbits

collagen: Calf skin collagen (Sigma Chemical Co.) [reference compound]
platelet aggregation by agonist [1]: prompt and complete platelet aggregation

CC(=O)Oc1ccccc1C(=O)O [aspirin]
effect on clot formation in intracarotid cannula [2]: can be modified

Nc1ncnc2c1ncn2[C@@H]1O[C@H](COP(O)(=S)OP(=O)(O)OP(=O)(O)OP(O)(=S)OC[C@H]2O[C@@H](n3cnc4c(N)ncnc43)[C@H](O)[C@@H]2O)[C@@H](O)[C@H]1O (stereo partly shown) [Analogue E15, Aps ppps A]
IC50 [3, 8]: 6 µM
inhibition of platelet aggregation compared with E10 ([3]; sulfur-containing analogues): an inhibitory effect as great as E10

Nc1ncnc2c1ncn2[C@@H]1O[C@H](COP(=O)(O)C(Cl)(Cl)P(=O)(O)OP(=O)(O)C(Cl)(Cl)P(=O)(O)OC[C@H]2O[C@@H](n3cnc4c(N)ncnc43)[C@H](O)[C@@H]2O)[C@@H](O)[C@H]1O [Analogue E11, Ap(CCL2)pp(CCl2)pA]
IC50 [3, 9]: 9 µM

Nc1ncnc2c1ncn2[C@@H]1O[C@H](COP(=O)(O)OP(=O)(O)CP(=O)(O)OP(=O)(O)OC[C@H]2O[C@@H](n3cnc4c(N)ncnc43)[C@H](O)[C@@H]2O)[C@@H](O)[C@H]1O [Analogue E2, App(CH2)ppA]
IC50 [3, 9]: 22 µM

Nc1ncnc2c1ncn2[C@@H]1O[C@H](COP(=O)(O)OP(=O)(O)CCP(=O)(O)OP(=O)(O)OC[C@H]2O[C@@H](n3cnc4c(N)ncnc43)[C@H](O)[C@@H]2O)[C@@H](O)[C@H]1O [Analogue E3, App(CH2)2 ppA]
IC50 [3, 9]: 11 µM

Nc1ncnc2c1ncn2[C@@H]1O[C@H](COP(=O)(O)OP(=O)(O)C(F)P(=O)(O)OP(=O)(O)OC[C@H]2O[C@@H](n3cnc4c(N)ncnc43)[C@H](O)[C@@H]2O)[C@@H](O)[C@H]1O (stereo partly shown) [Analogue E5, App(CHF)ppA]
inhibition of platelet aggregation (in words) ([3]; 5 μM ADP): particularly effective; also recorded: the next most effective in inhibiting platelet aggregation
IC50 [3, 9]: 4 µM

Nc1ncnc2c1ncn2[C@@H]1O[C@H](COP(O)(=S)OP(=O)(O)C(F)(F)P(=O)(O)OP(O)(=S)OC[C@H]2O[C@@H](n3cnc4c(N)ncnc43)[C@H](O)[C@@H]2O)[C@@H](O)[C@H]1O (stereo partly shown) [Analogue E14, Aps p(CF2)pps A]
IC50 [3, 8]: 17 µM

Nc1ncnc2c1ncn2[C@@H]1O[C@H](COP(=O)(O)C(F)(F)P(=O)(O)OP(=O)(O)C(F)(F)P(=O)(O)OC[C@H]2O[C@@H](n3cnc4c(N)ncnc43)[C@H](O)[C@@H]2O)[C@@H](O)[C@H]1O [Analogue E7, Ap(CF2)pp(CF2)pA]
IC50 [3, 9]: 15 µM

Nc1ncnc2c1ncn2[C@@H]1O[C@H](COP(=O)(O)OP(=O)(O)C(Cl)P(=O)(O)OP(=O)(O)OC[C@H]2O[C@@H](n3cnc4c(N)ncnc43)[C@H](O)[C@@H]2O)[C@@H](O)[C@H]1O (stereo partly shown) [Analogue E10, diadenosine chloromethylene tetraphosphate]
Ki ([4]; competitive inhibition of ADP-induced aggregation): 6.7 µM
type / relative strength of inhibition ([4]; double reciprocal plot): superior to AP4 A as a competitive inhibitor
effect on clot formation compared to saline controls ([5]; E10 30 mg and 100 mg series combined): significantly reduces clot formation
% Clots [5, 10]: 33%
Clot Absent (rabbits) [5, 10]: 4
Clot Present (rabbits) [5, 10]: 2
fraction of rabbits with no incidence of clotting ([5]; E10 100 mg): two-thirds
% Clots [5, 11]: 33%
Clot Absent (rabbits) [5, 11]: 8
Clot Present (rabbits) [5, 11]: 4
% Clots [5, 12]: 33%
Clot Absent (rabbits) [5, 12]: 12
Clot Present (rabbits) [5, 12]: 6
inhibition of platelet aggregation (in words) ([3]; 5 μM ADP): particularly effective; also recorded: the most effective inhibitor of platelet aggregation; also recorded: potent inhibitor of platelet aggregation; also recorded: potent inhibitors of platelet aggregation and blood clot formation
IC50 [3, 9]: 3 µM
IC50 [3, 8]: < 5 µM

Nc1ncnc2c1ncn2[C@@H]1O[C@H](COP(=O)(O)OP(=O)(O)C(F)(F)P(=O)(O)OP(=O)(O)OC[C@H]2O[C@@H](n3cnc4c(N)ncnc43)[C@H](O)[C@@H]2O)[C@@H](O)[C@H]1O [Analogue E8, App(CF2)ppA]
IC50 [3, 9]: 6 µM

Nc1ncnc2c1ncn2[C@@H]1O[C@H](COP(=O)(O)C(F)P(=O)(O)OP(=O)(O)C(F)P(=O)(O)OC[C@H]2O[C@@H](n3cnc4c(N)ncnc43)[C@H](O)[C@@H]2O)[C@@H](O)[C@H]1O (stereo partly shown) [Analogue E6, Ap(CHF)pp(CHF)pA]
IC50 [3, 9]: 50 µM

Nc1ncnc2c1ncn2[C@@H]1O[C@H](COP(=O)(O)OP(=O)(O)O)[C@@H](O)[C@H]1O [ADP, adenosine diphosphate, reference compound]
Km [4]: 3 µM
platelet aggregation by agonist [6]: prompt and complete platelet aggregation

Nc1ncnc2c1ncn2[C@@H]1O[C@H](COP(=O)(O)OP(=O)(O)OP(=O)(O)OC[C@H]2O[C@@H](n3cnc4c(N)ncnc43)[C@H](O)[C@@H]2O)[C@@H](O)[C@H]1O [AP3 A, diadenosine 5',5'"-p^1, p^3 -triphosphate]
degradation products [7]: hydrolysed in plasma to AMP (adenosine monophosphate) and ADP (adenosine diphosphate)
effect on platelet aggregation (platelets): gradual aggregation of platelets; also recorded: immediately reversible upon the addition of AP4 A

OCCN(CCO)c1nc(N2CCCCC2)c2nc(N(CCO)CCO)nc(N3CCCCC3)c2n1 [dipyridamole]
effect on clot formation in intracarotid cannula [2]: can be modified

Nc1ncnc2c1ncn2[C@@H]1O[C@H](COP(=O)(O)CP(=O)(O)OP(=O)(O)CP(=O)(O)OC[C@H]2O[C@@H](n3cnc4c(N)ncnc43)[C@H](O)[C@@H]2O)[C@@H](O)[C@H]1O [Analogue E4, Ap(CH2)pp(CH2)pA]
IC50 [3, 9]: > 50 µM
effect on platelet inhibition at 50 μM [3]: no effect on platelet inhibition

Nc1ncnc2c1ncn2C1OC(COP(=O)(O)CP(=O)(O)OP(=O)(O)CP(=O)(O)OCC2OC(n3cnc4c(N)ncnc43)C(O)C2O)C(O)C1O (stereo not shown) [Analogue E1, Ap(CH2)pp(CH2)pA]
IC50 ([3]; Table 3, 5 μM ADP, 1 minute pre-incubation at 37° C., read-out: ID50 (concentration of analogue at which platelets are inhibited by 50 percent)): > 50 µM
effect on platelet inhibition at 50 μM [3]: no effect on platelet inhibition

Nc1ncnc2c1ncn2[C@@H]1O[C@H](COP(=O)(O)C(Cl)P(=O)(O)OP(=O)(O)C(Cl)P(=O)(O)OC[C@H]2O[C@@H](n3cnc4c(N)ncnc43)[C@H](O)[C@@H]2O)[C@@H](O)[C@H]1O (stereo partly shown) [Analogue E9, Ap(CHCl)pp(CHCl)pA]
IC50 [3, 9]: 19 µM

CCCCCCCCNC(C)C(O)c1ccc(SC(C)C)cc1 (stereo not shown) [suloctidil]
effect on clot formation in intracarotid cannula [2]: can be modified

Nc1ncnc2c1ncn2[C@@H]1O[C@H](COP(=O)(O)OP(=O)(O)C(Cl)(Cl)P(=O)(O)OP(=O)(O)OC[C@H]2O[C@@H](n3cnc4c(N)ncnc43)[C@H](O)[C@@H]2O)[C@@H](O)[C@H]1O [Analogue E12, App(CCl2)ppA]
IC50 [3, 9]: 10 µM

Nc1ncnc2c1ncn2[C@@H]1O[C@H](COP(O)(=S)OP(=O)(O)C(F)P(=O)(O)OP(O)(=S)OC[C@H]2O[C@@H](n3cnc4c(N)ncnc43)[C@H](O)[C@@H]2O)[C@@H](O)[C@H]1O (stereo partly shown) [Analogue E13, Aps p(CHF)pps A]
IC50 [3, 8]: 7 µM
inhibition of platelet aggregation compared with E10 ([3]; sulfur-containing analogues): an inhibitory effect as great as E10
